The values that follow come from article PMC3590144, “Determination of the Structure of the Catabolic N-Succinylornithine Transaminase (AstC) from Escherichia coli” (PLoS ONE, 2013).

Structures are written as SMILES.

Holding throughout (type): binding
The target in assay [1] is T1, AstC (Escherichia coli, UniProt P77581).
T1 construct: full-length, native untagged, no plasmid; purified from E. coli BL21(DE3) by Ni-NTA and size exclusion as apo-protein, reconstituted with PLP; about 406 residues; dimer
Put plainly: X-ray crystal structure, […] Å. Particulars: covalent; internal aldimine with Lys252 at dimer interface; sodium malonate, Tris pH 8.0.

Assay [2] concerns the target T1, AstC. The experiment in a line: differential scanning fluorimetry, SYPRO dye. The following applies: Tris buffered saline; apo-protein plus PLP (about 10-fold excess) versus apo-protein.
The target of assay [3] is T1, AstC. Put plainly: X-ray crystal structure of co-crystals, […] Å. Particulars: covalent to PLP cofactor (external aldimine); PLP present; salt bridge to Arg141; ammonium sulfate pH 7-9.

T1 sequence (P77581 whole entry): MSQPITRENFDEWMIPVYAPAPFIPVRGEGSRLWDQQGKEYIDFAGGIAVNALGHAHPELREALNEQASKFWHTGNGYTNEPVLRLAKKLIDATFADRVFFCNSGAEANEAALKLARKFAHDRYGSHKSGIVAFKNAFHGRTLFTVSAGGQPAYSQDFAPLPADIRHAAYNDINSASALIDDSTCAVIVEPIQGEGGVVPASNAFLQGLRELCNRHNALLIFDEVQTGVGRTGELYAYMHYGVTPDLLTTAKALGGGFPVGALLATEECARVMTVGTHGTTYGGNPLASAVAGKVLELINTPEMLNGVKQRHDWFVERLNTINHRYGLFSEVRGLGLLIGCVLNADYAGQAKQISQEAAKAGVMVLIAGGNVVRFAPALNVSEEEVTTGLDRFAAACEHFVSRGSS

Turning to `Cc1ncc(COP(=O)(O)O)c(C=O)c1O` [PLP, pyridoxal phosphate], the “X-ray crystal structure, 2.20 Å” value in assay [1] was “continuous density between Lys252 and the PLP, indicating that the expected aldimine had formed”. For the same compound, the “apparent Tm (holo-AstC; apo-AstC 43.5)” value in assay [2] came out at 46 °C.

Turning to `NCCC[C@H](NC(=O)CCC(=O)O)C(=O)O` [SO, succinylornithine], the “X-ray crystal structure of co-crystals, 2.45 Å” value in assay [3] was “continuous electron density between PLP and SO was observed (see Figure 5C)”.
